# Source: PMC10692717, “Peptides designed from a bacteriophage capsid protein function as synthetic transcription repressors” (The Journal of Biological Chemistry, 2023)
# pKd: −log10 of the molar value. Read-outs that look alike come from different tables or passages of the source. Where no end group is shown, it is not given here.
# Assays:
# [1] = target: peptide 33 (bacteriophage P4 (designed variant)) (UniProt P05460); test: EMSA; details: EMSA/competition: 10 mM Tris-HCl pH 8.0, 250 mM NaCl, 37 C, 10 min, 10 nM labeled nucleic acid, fluorescence: 10 mM Tris-Cl pH 8, 500 mM NaCl, 20-37 C
# bacterial cells = details: cited from earlier work
# E. coli = details: also cause cell death; ref [29]; cited from earlier work
# From the text: (§1) AMPs are prevalent in all forms of life. They are part of the natural defense mechanism of the organism. […] Another such small peptide that has the potential to be useful against drug-resistant bac ...
# bacteria = details: acts by blocking the synthesis of macromolecules; ref [28]; cited from earlier work
# From the text: as §1
# [2] = target: peptide 33 (bacteriophage P4 (designed variant)) (UniProt P05460); test: competition; details: EMSA/competition: 10 mM Tris-HCl pH 8.0, 250 mM NaCl, 37 C, 10 min, 10 nM labeled nucleic acid, fluorescence: 10 mM Tris-Cl pH 8, 500 mM NaCl, 20-37 C, scale: fold excess over 292 bp dsDNA for 50% release
# dsDNA = details: ref [30], [31], [32]; cited from earlier work
# From the text: as §1
compound,measurement,setting,value
160 bp dsDNA,pKd,[1],5.40
283 nt gfc RNA,pKd,[1],6.00
292 bp dsDNA,pKd,[1],5.56
499 bp dsDNA,pKd,[1],5.33
NCC[C@H](O)C(=O)N[C@@H]1C[C@H](N)[C@@H](O[C@H]2O[C@H](CN)[C@@H](O)[C@H](O)[C@H]2O)[C@H](O)[C@H]1O[C@H]1O[C@H](CO)[C@@H](O)[C@H](N)[C@H]1O [amikacin],elongated cell phenotype,bacterial cells; ref [21],elongated cells phenotypes
O=C(N[C@H](CO)[C@H](O)c1ccc([N+](=O)[O-])cc1)C(Cl)Cl [chloramphenicol],elongated cell phenotype,"bacterial cells; ref [21], [22]",elongated cells phenotypes
O=C(O)c1cn(C2CC2)c2cc(N3CCNCC3)c(F)cc2c1=O [ciprofloxacin],elongated cell phenotype,bacterial cells; ref [19],elongated cells phenotypes
NC[C@H]1O[C@H](O[C@H]2[C@H](O)[C@@H](O[C@H]3O[C@H](CO)[C@@H](O)[C@H](N)[C@H]3O)[C@H](N)C[C@@H]2N)[C@H](O)[C@@H](O)[C@@H]1O [kanamycin],elongated cell phenotype,bacterial cells; ref [20],elongated cells phenotypes
ATCTTCTCTCATCCGCCAAAACAGCC [26-mer ssDNA (RS1816)],pKd,[1],5.70
HNP-1: human neutrophils-derived peptide defensin,"inhibition of DNA, RNA, and protein synthesis",E. coli,"inhibit the synthesis of DNA, RNA, and proteins"
"HNP-2: human neutrophils-derived peptide defensin (CYCRIPACIAGERRYGTCIYQGRLWAFCC; ends and bridges not checked; cysteine pairing not given here; UniProt P59665 66-94, looked up)","inhibition of DNA, RNA, and protein synthesis",E. coli,"inhibit the synthesis of DNA, RNA, and proteins"
HNP-3: human neutrophils-derived peptide defensin,"inhibition of DNA, RNA, and protein synthesis",E. coli,"inhibit the synthesis of DNA, RNA, and proteins"
Pleurocidin,antibacterial activity,bacteria,broad-spectrum antibacterial activity
TGATCCTCCTCCTCCTGATCCTCCTCCTCCTGATCCTCCTCCTCCTGAGCGTTTCATCATTTCGAAGAAATCGTC [75-mer ssDNA (RS2230)],pKd,[1],6.13
same,binding signal,[2],9.5
gentamycin,elongated cell phenotype,bacterial cells; ref [23],elongated cells phenotypes
"indolicidin: 13-mer peptide with tryptophan-rich sequences of the cathelicidin family of host defense peptides (ILPWKWPWWPWRR; ends and bridges not checked; UniProt P33046 131-143, looked up)",binding to dsDNA,dsDNA,binds to dsDNA
lambda tR1 RNA (284 nt),binding signal,[2],2.8
